Measured values as given in patent US20010046992A1, “Treatment of urinary tract infections with antibacterial oxazolidinones” (priority 2000, published 2001).

Assay: loss of linezolid in IV solution during and following terminal moist heat sterilization in the container
Assay type: physicochemical
Conditions: container-solution contact surface made of at least 50% polyolefin
Text: It is well known to those skilled in the art that pharmaceutical agents administered IV must be sterile. While there are a number of methods to sterilize an IV solution, it is preferred to terminally moist heat or steam sterilize IV solutions of antibacterial oxazolidinones including those of linezolid. When the term terminally “moist heat sterilize” is used, it refers to and includes steam sterilization.
When terminally moist heat sterilizing an IV solution, the solution is placed in the container in which (1) it will be stored and then transferred to the container from which it will ultimately be administered, or (2) stored and then ultimately administered from the same container to deliver the IV solution to the patient. Therefore, it is imperative that the pharmaceutically active ingredient (oxazolidinone, linezolid) not react with the container in which it is to be terminally moist heat sterilized and stored/stored-administered.
What is essential is that the container-solution contact surface material be primarily a polyolefin; the remainder of the container can be made from polyolefin or other materials. It is preferred that the container-solution contact surface is made of from about 50 to about 100% polyolefin. It is more preferred that the container-solution contact surface is made of from about 70 to about 90% polyolefin. […]

CC(=O)NC[C@H]1CN(c2ccc(N3CCOCC3)c(F)c2)C(=O)O1 [linezolid, (S)-N-[[3-[3-fluoro-4-(4-morpholinyl)phenyl]-2-oxo-5-oxazolidinyl]methyl]acetamide]
loss of linezolid during and following terminal moist heat sterilization: significantly much less loss
